# Laboratory results as given in ChEMBL document CHEMBL4257485, “The critical role of novel benzophenone analogs on tumor growth inhibition targeting angiogenesis and apoptosis” (Medchemcomm, 2018).
# Calls of active or inactive are those of the source. The calls are words filed in the database; no cut-off is given here.
# Key:
# A549 [1] = test: Cytotoxicity against human A549 cells after 48 hrs by trypan blue exclusion assay; assay type: functional, cell-based; conditions: A549, 48 h
# A549 [2] = test: Cytotoxicity against human A549 cells after 48 hrs by MTT assay; assay type: functional, cell-based; conditions: A549, 48 h
# A549 [3] = test: Cytotoxicity against human A549 cells after 48 hrs by LDH release assay; assay type: functional, cell-based; conditions: A549, 48 h
# HeLa [4] = test: Cytotoxicity against human HeLa cells after 48 hrs by trypan blue exclusion assay; assay type: functional, cell-based
# HeLa [5] = test: Cytotoxicity against human HeLa cells after 48 hrs by MTT assay; assay type: functional, cell-based
# HeLa [6] = test: Cytotoxicity against human HeLa cells after 48 hrs by LDH release assay; assay type: functional, cell-based
# MCF7 [7] = test: Cytotoxicity against human MCF7 cells after 48 hrs by trypan blue exclusion assay; assay type: functional, cell-based; conditions: MCF7, 48 h
# MCF7 [8] = test: Cytotoxicity against human MCF7 cells after 48 hrs by MTT assay; assay type: functional, cell-based; conditions: MCF7, 48 h
# MCF7 [9] = test: Cytotoxicity against human MCF7 cells after 48 hrs by LDH release assay; assay type: functional, cell-based; conditions: MCF7, 48 h
# NIH3T3 [10] = test: Cytotoxicity against mouse NIH/3T3 cells after 48 hrs by trypan blue exclusion assay; assay type: cell-based; conditions: NIH3T3, 48 h
# NIH3T3 [11] = test: Cytotoxicity against mouse NIH/3T3 cells after 48 hrs by MTT assay; assay type: cell-based; conditions: NIH3T3, 48 h
# NIH3T3 [12] = test: Cytotoxicity against mouse NIH/3T3 cells after 48 hrs by LDH release assay; assay type: cell-based; conditions: NIH3T3, 48 h
# A549 [13] = test: Inhibition of colony formation of human A549 cells at 25 to 50 uM pretreated for 6 hrs followed by subsequent incubation for 12 days by crystal violet staining-based assay; assay type: functional, cell-based
# A549 [14] = test: Inhibition of migration of human A549 cells at 25 uM after 48 hrs by scratch wound assay relative to control; assay type: functional; conditions: A549, 48 h
# A549 [15] = test: Inhibition of migration of human A549 cells at 50 uM after 48 hrs by scratch wound assay relative to control; assay type: functional; conditions: A549, 48 h
# Chorioallantoic membrane [16] = test: In vivo angioprotective activity in chicken CAM assessed as inhibition of recombinant VEGF165-induced neovuscularization at 1 mg/ml after 72 hrs; assay type: functional, Gallus gallus
# Chorioallantoic membrane [17] = test: Ex vivo angioprotective activity in chicken CAM assessed as inhibition of recombinant VEGF165-induced neovuscularization at 1 mg/ml after 72 hrs; assay type: functional, tissue-based; conditions: Gallus gallus
# Chorioallantoic membrane [18] = test: In vivo angioprotective activity in chicken CAM assessed as decrease in recombinant VEGF165-induced total vessel length at 1 mg/ml after 72 hrs; assay type: functional, Gallus gallus; set-up: scale not given: the % may be the effect or the level left
# Chorioallantoic membrane [19] = test: Ex vivo angioprotective activity in chicken CAM assessed as decrease in recombinant VEGF165-induced total vessel length at 1 mg/ml after 72 hrs; assay type: functional, tissue-based; set-up: scale not given: the % may be the effect or the level left; conditions: Gallus gallus
# A549 [20] = test: Antitumor activity against human A549 cells xenografted in chicken CAM assessed as reduction in tumor progression at 1 mg/ml measured on day 12 post fertilization by hematoxylin and eosin staining-based assay relative to control; assay type: functional
# A549 [21] = test: Antiangiogenic activity in human A549 cells xenografted in chicken CAM assessed as reduction in recombinant VEGF165-induced MVD/HPF at 1 mg/ml measured on day 12 post fertilization by hematoxylin and eosin staining-based assay relative to control; assay type: functional; set-up: scale not given: the % may be the effect or the level left
# A549 [22] = test: Antiangiogenic activity in human A549 cells xenografted in chicken CAM assessed as reduction in recombinant VEGF165-induced MVD/HPF measured on day 12 post fertilization by hematoxylin and eosin staining-based assay; assay type: functional, cell-based
# A549 [23] = test: Induction of morphological changes in human A549 cells assessed as irregular shape by Giemsa staining-based microscopic method; assay type: functional, cell-based
# A549 [24] = test: Induction of morphological changes in human A549 cells assessed as membrane blebbing by Giemsa staining-based microscopic method; assay type: functional, cell-based
# A549 [25] = test: Induction of morphological changes in human A549 cells assessed as formation of apoptotic bodies by Giemsa staining-based microscopic method; assay type: functional, cell-based
# Homo sapiens = species: Homo sapiens; test: Induction of endonuclease activity in cytosolic fraction of human A549 cells assessed as increase in DNA lysis zone at 85 uM by SYBR green dye-based agarose gel electrophoresis
# A549 [26] = test: Downregulation of VEGF expression in human A549 cells by immunoblot method; assay type: functional, cell-based
# [27] = system: Enterobacteria phage lambda; test: Induction of lambda phage DNA fragmentation by agarose gel electrophoresis
# A549 [28] = test: Induction of apoptosis in human A549 cells assessed as early apoptotic cells at IC50 after 12 to 15 hrs by annexin-V-FITC/propidium iodide staining-based flow cytometric method (reference value: 1.65%); assay type: functional
# A549 [29] = test: Induction of apoptosis in human A549 cells assessed as late apoptotic cells at IC50 after 12 to 15 hrs by annexin-V-FITC/propidium iodide staining-based flow cytometric method (reference value: 14.3%); assay type: functional
# A549 [30] = test: Induction of apoptosis in human A549 cells assessed as necrotic cells at IC50 after 12 to 15 hrs by annexin-V-FITC/propidium iodide staining-based flow cytometric method (reference value: 10.2%); assay type: functional
# A549 [31] = test: Induction of apoptosis in human A549 cells assessed as live cells at IC50 after 12 to 15 hrs by annexin-V-FITC/propidium iodide staining-based flow cytometric method (reference value: 73.8%); assay type: functional
# A549 [32] = test: Induction of apoptosis in human A549 cells assessed as caspase-3 activation by immunoblot method; assay type: functional, cell-based
# A549 [33] = test: Cell cycle arrest in human A549 cells assessed as accumulation at sub-G1 phase at IC50 after 16 hrs by propidium iodide staining-based flow cytometric method (reference value: 0.69%); assay type: functional
# A549 [34] = test: Cell cycle arrest in human A549 cells assessed as accumulation at G0/G1 phase at IC50 after 16 hrs by propidium iodide staining-based flow cytometric method (reference value: 70.8%); assay type: functional
# A549 [35] = test: Cell cycle arrest in human A549 cells assessed as accumulation at S phase at IC50 after 16 hrs by propidium iodide staining-based flow cytometric method (reference value: 24.8%); assay type: functional
# A549 [36] = test: Cell cycle arrest in human A549 cells assessed as accumulation at G2/M phase at IC50 after 16 hrs by propidium iodide staining-based flow cytometric method (reference value: 3.44%); assay type: functional
# A549 [37] = test: Cell cycle arrest in human A549 cells assessed as decrease in cell levels at G2/M phase at IC50 after 24 to 48 hrs by propidium iodide staining-based flow cytometric method; assay type: functional
# A549 [38] = test: Cell cycle arrest in human A549 cells assessed as increase in accumulation at sub-G0 phase at IC50 after 48 hrs by propidium iodide staining-based flow cytometric method; assay type: functional
smiles,measurement,setting,value
O=C(COc1c(F)cc(C(=O)c2ccc(Cl)cc2)cc1Cl)NNC(=O)c1ccc(=O)oc1,IC50,A549 [1],86.7 µM
same,IC50,A549 [2],88.8 µM
same,IC50,A549 [3],84.9 µM
same,IC50,HeLa [4],89.6 µM
same,IC50,HeLa [5],87.1 µM
same,IC50,HeLa [6],85.1 µM
same,IC50,MCF7 [7],90.6 µM
same,IC50,MCF7 [8],86.2 µM
same,IC50,MCF7 [9],83.8 µM
same,IC50,NIH3T3 [10],79.3 µM
same,IC50,NIH3T3 [11],77.6 µM
same,IC50,NIH3T3 [12],78.6 µM
Cn1cnc(C(=O)NNC(=O)COc2c(F)cc(C(=O)c3ccc(F)cc3)cc2Cl)c1,IC50,A549 [1],39.6 µM
same,IC50,A549 [2],40.1 µM
same,IC50,A549 [3],40.7 µM
same,IC50,HeLa [4],39.9 µM
same,IC50,HeLa [5],42.2 µM
same,IC50,HeLa [6],40.9 µM
same,IC50,MCF7 [7],44.6 µM
same,IC50,MCF7 [8],45.1 µM
same,IC50,MCF7 [9],44.6 µM
same,IC50,NIH3T3 [10],94.2 µM
same,IC50,NIH3T3 [11],89.2 µM
same,IC50,NIH3T3 [12],94.4 µM
Cc1ccc(C(=O)c2cc(F)c(OCC(=O)NNC(=O)c3cn(C)cn3)c(Cl)c2)cc1,IC50,A549 [1],9.6 µM
same,IC50,A549 [2],8.8 µM
same,IC50,A549 [3],9.1 µM
same,IC50,HeLa [4],10.2 µM
same,IC50,HeLa [5],9.9 µM
same,IC50,HeLa [6],10.4 µM
same,IC50,MCF7 [7],9.5 µM
same,IC50,MCF7 [8],9.8 µM
same,IC50,MCF7 [9],9.4 µM
same,IC50,NIH3T3 [10],93.8 µM
same,IC50,NIH3T3 [11],94.2 µM
same,IC50,NIH3T3 [12],94.9 µM
same,inhibition,A549 [13],Active
same,inhibition at 25 µM,A549 [14],15.6%
same,inhibition at 50 µM,A549 [15],78.8%
same,inhibition (INH),Chorioallantoic membrane [16],24%
same,inhibition,Chorioallantoic membrane [17],26%
same,Activity,Chorioallantoic membrane [18],85%
same,Activity,Chorioallantoic membrane [19],85%
same,fold change (FC),A549 [20],1.7
same,Activity,A549 [21],86.2%
same,Activity,A549 [22],Dose-dependent effect
same,Activity,A549 [23],Active
same,Activity,A549 [24],Active
same,Activity,A549 [25],Active
same,Activity,Homo sapiens,Active
same,Activity,A549 [26],Active
same,Activity,[27],Active
same,Activity,A549 [28],0.6%
same,Activity,A549 [29],48.4%
same,Activity,A549 [30],17.4%
same,Activity,A549 [31],33.5%
same,Activity,A549 [32],Active
same,Activity,A549 [33],5.83%
same,Activity,A549 [34],75.9%
same,Activity,A549 [35],16.7%
same,Activity,A549 [36],1.62%
same,Activity,A549 [37],Active
same,Activity,A549 [38],Active
O=C(COc1ccc(C(=O)c2ccccc2)cc1)NNC(=O)c1ccc(=O)oc1,IC50,A549 [1],96.7 µM
same,IC50,A549 [2],98.8 µM
same,IC50,A549 [3],90.9 µM
same,IC50,HeLa [4],89.2 µM
same,IC50,HeLa [5],99.1 µM
same,IC50,HeLa [6],96.1 µM
same,IC50,MCF7 [7],92.9 µM
same,IC50,MCF7 [8],93.2 µM
same,IC50,MCF7 [9],61.1 µM
same,IC50,NIH3T3 [10],84.3 µM
same,IC50,NIH3T3 [11],87.3 µM
same,IC50,NIH3T3 [12],88.2 µM
